Laboratory results: ChEMBL document CHEMBL1142134, “Characterization of squalene epoxidase of Saccharomyces cerevisiae by applying terbinafine-sensitive variants” (2007)
Activity calls are given as the source filed them. No cut-off for these calls is given here.

How the values were obtained:
Saccharomyces cerevisiae [1] = assay: Increased sensitivity to growth inhibition in Saccharomyces cerevisiae KLN1 carrying erg1 pR269G allele after 24 hrs relative to wild type at 30 degC; type: functional
Saccharomyces cerevisiae [2] = assay: Increased sensitivity to growth inhibition in Saccharomyces cerevisiae KLN1 carrying erg1 pL37P allele after 24 hrs relative to wild type at 30 degC; type: functional
Saccharomyces cerevisiae [3] = assay: Growth inhibition in Saccharomyces cerevisiae KLN1 carrying erg1 pG30S allele at 0.5 ug/ml after 24 hrs at 30 degC; type: functional, organism-based
Saccharomyces cerevisiae [4] = assay: Growth inhibition in Saccharomyces cerevisiae KLN1 carrying erg1 pL37P allele at 0.2 ug/ml after 24 hrs at 30 degC; type: functional, organism-based
Saccharomyces cerevisiae [5] = assay: Growth inhibition in Saccharomyces cerevisiae KLN1 carrying erg1 pR269G allele at 1 ug/ml after 24 hrs st 30 degC; type: functional, organism-based

Compound: CC(=O)N1CCN(c2ccc(OCC3COC(Cn4ccnc4)(c4ccc(Cl)cc4Cl)O3)cc2)CC1 (centres undefined) [KETOCONAZOLE]
- Fold change (Saccharomyces cerevisiae [1]): 2
- Fold change (Saccharomyces cerevisiae [2]): 5

Compound: CN(C/C=C/c1ccccc1)Cc1cccc2ccccc12 [NAFTIFINE]
- Fold change (Saccharomyces cerevisiae [1]): >10
- Fold change (Saccharomyces cerevisiae [2]): >25

Compound: CN(C/C=C/C#CC(C)(C)C)Cc1cccc2ccccc12 [TERBINAFINE]
- Activity (Saccharomyces cerevisiae [3]): Active
- Activity (Saccharomyces cerevisiae [4]): Active
- Fold change (Saccharomyces cerevisiae [1]): >5
- Fold change (Saccharomyces cerevisiae [2]): >10
- Activity (Saccharomyces cerevisiae [5]): Active
